Values joined by “and” are separate entries in the source; they are usually repeats but may differ in a detail not shown here. Equal values may be shown once.

This assay concerns the target T1, GST-tAurora A (123-401aa) fusion protein (Homo sapiens, UniProt O14965).
T1 construct: GST-tAurora A (123-401aa) fusion protein; made in house; host or cells: Sf9 insect cells (baculovirus, pBacPAK8)
T1 sequence (O14965 123-401): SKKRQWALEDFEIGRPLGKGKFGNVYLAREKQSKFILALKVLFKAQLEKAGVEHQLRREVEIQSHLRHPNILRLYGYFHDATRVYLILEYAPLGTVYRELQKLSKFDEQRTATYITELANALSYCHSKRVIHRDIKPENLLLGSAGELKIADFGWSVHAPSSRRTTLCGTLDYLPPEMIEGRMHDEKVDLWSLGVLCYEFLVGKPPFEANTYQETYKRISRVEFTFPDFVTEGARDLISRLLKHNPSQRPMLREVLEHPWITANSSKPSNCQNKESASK
The experiment in a line: Aurora Kinase A luminescent kinase assay. The format is biochemical. Conditions: IC50 (concentration of a test compound at which activity of 50% of Aurora A is inhibited). How it is done: The Aurora A catalytic domain with an N-terminal GST tag was constructed in pBacPAK8 plasmid and expressed in sf9 cells. […] To concentrate GST-tAurora A, buffer was replaced with Tris buffer (100 mM Tris (pH 7.5), 300 mM NaCl, 1 mM EDTA, 4 mM DTT) using Amicon ultra-15 (MWCO:30K, Millipore) to 2.4 mg/ml. After the addition of equal volume of glycerol and 0.04% Triton X-100, the proteins were stored aliquoted at −80° C.
Briefly, a test compound, enzyme, substrate-tetra(LRRWSLG), DTT and ATP were dissolved in Aur buffer (50 mM Tris-HCl pH 7.4, 10 mM NaCl, 10 mM MgCl2, and 100 μg/ml BSA) individually before the assay. […] 5 μM ATP (5 μl), 1 mM DTT (5 μl) and 0.1 mM tetra(LRRWSLG) peptide substrate (5 μl) were added into the reactions of test compounds and GST-tAurora A. The reactions were incubated at 37° C. for 90 min. 50 μl of Kinase-Glo Plus Reagent (V3771, Promega) was added into the reactions, followed by the incubation at 25° C. for 20 min.
What is called IC50 is the concentration at which inhibition is half-maximal. A higher IC50 goes with weaker potency in that assay. As to `O=C(Nc1ccc(CCNc2ncnc3oc(-c4ccccc4)c(-c4ccccc4)c23)cc1)NC1CCCC1` [Compound 70], the IC50 is 0.045 to 0.4 µM and < 1 µM.

As for `O=C(NCCCCl)Nc1ccc(CCNc2ncnc3oc(-c4ccccc4)c(-c4ccccc4)c23)cc1` [Compound 227], the IC50 was < 1 µM. In the case of `O=C(NCCN1CCOCC1)Nc1ccc(CCNc2ncnc3oc(-c4ccccc4)c(-c4ccccc4)c23)cc1` [Compound 20] it was 0.045 to 0.4 µM and < 1 µM; in that of `O=Cc1ccc(-c2c(-c3ccccc3)oc3ncnc(NCCc4ccc(NC(=O)Nc5ccccc5)cc4)c23)o1` [Compound 76], 0.045 to 0.4 µM and < 1 µM; in that of `O=C(Nc1ccc(CCNc2ncnc3oc(-c4ccccc4)c(-c4ccccc4)c23)cc1)Nc1c(F)cccc1F` [Compound 94], < 1 µM. In the case of `O=C(Nc1ccccc1)Nc1ccc(CCNc2ncnc3oc(-c4ccccc4)c(-c4cccc(O)c4)c23)cc1` [Compound 78], the IC50 is 0.045 to 0.4 µM and < 1 µM.

`Cc1cc(NC(=O)Nc2ccc(CCNc3ncnc4oc(-c5ccccc5)c(-c5ccccc5)c34)cc2)on1` [Compound 161]: the IC50 was < 1 µM and 0.045 to 0.4 µM. Next, `O=C(Nc1ccc(CCNc2ncnc3oc(-c4ccccc4)c(-c4ccccc4)c23)cc1)Nc1cccc(C(F)(F)F)c1` [Compound 29]: 0.045 to 0.4 µM and < 1 µM. Next, `O=C(Nc1ccc(CCNc2ncnc3oc(-c4ccccc4)c(-c4ccccc4)c23)cc1)Nc1ccccc1Br` [Compound 197]: < 1 µM; `O=C(Nc1ccc(CCNc2ncnc3oc(-c4ccccc4)c(-c4ccccc4)c23)cc1)Nc1cccc([N+](=O)[O-])c1` [Compound 32]: 0.045 to 0.4 µM and < 1 µM. In the case of `O=C(Nc1ccccc1)Nc1ccc(CCNc2ncnc3oc4c(c23)CCCC4)cc1` [Compound 173] it was < 1 µM; in that of `O=C(Nc1ccccc1)Nc1ccc(CCNc2ncnc3occ(-c4ccccc4)c23)cc1` [Compound 203], < 1 µM and 0.045 to 0.4 µM. As for `CN(C)c1ccc(NC(=O)Nc2ccc(CCNc3ncnc4oc(-c5ccccc5)c(-c5ccccc5)c34)cc2)cc1` [Compound 100], the IC50 was < 1 µM. Next, `COc1ccc(-c2oc3ncnc(NCCc4ccc(NC(=O)Nc5ccccc5)cc4)c3c2-c2ccc(O)cc2)cc1` [Compound 66]: 0.045 to 0.4 µM and < 1 µM. Next, `O=C(Nc1ccc(CCNc2ncnc3oc(-c4ccccc4)c(-c4ccccc4)c23)cc1)NC1CC1` [Compound 201]: < 1 µM and 0.045 to 0.4 µM; `Cc1cccc(NC(=O)Nc2ccc(CCNc3ncnc4oc(-c5ccccc5)c(-c5ccccc5)c34)cc2)c1` [Compound 28]: 0.045 to 0.4 µM and < 1 µM.

For the compound `Cc1cnc(NC(=O)Nc2ccc(CCNc3ncnc4oc(-c5ccccc5)c(-c5ccccc5)c34)cc2)s1` [Compound 164], the IC50 is < 1 µM. In the case of `Oc1ccc(CCNc2ncnc3oc(-c4ccccc4)c(-c4ccccc4)c23)cc1` [Compound 4] it was < 1 µM; in that of `Nc1ccc(CCNc2ncnc3oc(-c4ccccc4)c(-c4ccccc4)c23)cc1` [Compound 3, N-(4-aminophenethyl)-5,6-diphenylfuro[2,3-d]pyrimidin-4-amine], < 1 µM. Next, `CCOC(=O)CNC(=O)Nc1ccc(CCNc2ncnc3oc(-c4ccccc4)c(-c4ccccc4)c23)cc1` [Compound 200]: < 1 µM; `CC(=O)c1cccc(NC(=O)Nc2ccc(CCNc3ncnc4oc(-c5ccccc5)c(-c5ccccc5)c34)cc2)c1` [Compound 31]: 0.045 to 0.4 µM and < 1 µM.

For the compound `CN(C)Cc1cccc(NC(=O)Nc2ccc(CCNc3ncnc4oc(-c5ccccc5)c(-c5ccccc5)c34)cc2)c1` [Compound 119], the IC50 was < 1 µM and 0.045 to 0.4 µM. In the case of `CN(C)CCNC(=O)Nc1ccc(CCNc2ncnc3oc(-c4ccccc4)c(-c4ccccc4)c23)cc1` [Compound 198] it was 0.045 to 0.4 µM and < 1 µM; in that of `O=C(Nc1ccc(CCNc2ncnc3oc(-c4ccccc4)cc23)cc1)c1ccccc1` [Compound 229], < 1 µM. In the case of `C[Si](C)(C)C#Cc1c(-c2ccccc2)oc2ncnc(NCCc3ccc(NC(=O)Nc4ccccc4)cc3)c12` [Compound 81] it was < 1 µM; in that of `CC(=O)Nc1cccc(NC(=O)Nc2ccc(CCNc3ncnc4oc(-c5ccccc5)c(-c5ccccc5)c34)cc2)c1` [Compound 64], < 1 µM.

Consider `O=C(Nc1ccc(CCNc2ncnc3oc(-c4ccccc4)c(-c4ccccc4)c23)cc1)Nc1ccc(F)c(F)c1` [Compound 62], for which the IC50 was 0.045 to 0.4 µM and < 1 µM.

Take `COc1ccc(-c2c(-c3ccccc3)oc3ncnc(NCCc4ccc(NC(=O)Nc5ccccc5)cc4)c23)cc1` [Compound 56]: the IC50 is 0.045 to 0.4 µM and < 1 µM. Next, `O=C(Nc1ccc(CCNc2ncnc3oc(-c4ccccc4)c(-c4ccccc4)c23)cc1)Oc1ccccc1` [Compound 17]: 0.045 to 0.4 µM and < 1 µM.

In the case of `O=C(Nc1ccc(CCNc2ncnc3oc(-c4ccccc4)c(-c4ccccc4)c23)cc1)Nc1cccc(F)c1F` [Compound 91], the IC50 is 0.045 to 0.4 µM and < 1 µM.

For the compound `O=C(NCCO)Nc1ccc(CCNc2ncnc3oc(-c4ccccc4)c(-c4ccccc4)c23)cc1` [Compound 199], the 50% inhibitory concentration (IC50) was 0.045 to 0.4 µM and < 1 µM.

In the case of `O=C(Nc1ccc(CCNc2ncnc3oc(-c4ccccc4)c(-c4ccccc4)c23)cc1)Nc1ccccc1CN1CCCCC1` [Compound 124], the IC50 was < 1 µM.

For `CN(C)C(=O)Nc1ccc(CCNc2ncnc3oc(-c4ccccc4)c(-c4ccccc4)c23)cc1` [Compound 9], the IC50 was 0.045 to 0.4 µM and < 1 µM. In the case of `CN(C)CCNC(=O)Nc1ccc(CCNc2ncnc3oc(-c4ccccc4)cc23)cc1` [Compound 233] it was < 1 µM; in that of `O=C(Nc1ccc(CCNc2ncnc3oc(-c4ccccc4)c(-c4ccccc4)c23)cc1)Nc1ccc2c(c1)OCO2` [Compound 73], 0.045 to 0.4 µM and < 1 µM. On to `O=C(Cc1ccccc1)Nc1ccc(CCNc2ncnc3oc(-c4ccccc4)c(-c4ccccc4)c23)cc1` [Compound 41], for which the IC50 is 0.045 to 0.4 µM and < 1 µM. Turning to `N#C/N=C(\Nc1ccccc1)Nc1ccc(CCNc2ncnc3oc(-c4ccccc4)c(-c4ccccc4)c23)cc1` [Compound 75], the IC50 was < 1 µM. Next, `O=C(Nc1ccccc1)Nc1ccc(CCOc2ncnc3oc(-c4ccccc4)c(-c4ccccc4)c23)cc1` [Compound 27]: 0.045 to 0.4 µM and < 1 µM; `CCOC(=O)N1CCc2c(sc3ncnc(NCCc4ccc(NC(=O)Nc5ccccc5)cc4)c23)C1` [Compound 208]: < 1 µM and 0.045 to 0.4 µM; `CCOC(=O)c1c(-c2ccccc2)oc2ncnc(NCCc3ccc(NC(=O)Nc4ccccc4)cc3)c12` [Compound 107]: < 1 µM. Turning to `COc1cccc(NC(=O)Nc2ccc(CCNc3ncnc4oc(-c5ccccc5)c(-c5ccccc5)c34)cc2)c1` [Compound 40], the IC50 is < 1 µM. In the case of `O=C(Nc1ccc(CCNc2ncnc3oc(-c4ccccc4)c(-c4ccccc4)c23)cc1)N1CCN(c2ccc(F)cc2)CC1` [Compound 22] it was < 1 µM; in that of `CNC(=O)Nc1ccc(CCNc2ncnc3oc(-c4ccccc4)c(-c4ccccc4)c23)cc1` [Compound 8], 0.045 to 0.4 µM and < 1 µM; in that of `O=C(Nc1ccccc1)Nc1ccc(CCNc2ncnc3oc(-c4ccccc4)c(-c4ccc([N+](=O)[O-])cc4)c23)cc1` [Compound 77], 0.045 to 0.4 µM and < 1 µM.

As to `Cc1csc(NC(=O)Nc2ccc(CCNc3ncnc4oc(-c5ccccc5)c(-c5ccccc5)c34)cc2)n1` [Compound 163], the IC50 was < 1 µM and 0.045 to 0.4 µM.

As to `CN1CCN(Cc2cccc(NC(=O)Nc3ccc(CCNc4ncnc5oc(-c6ccccc6)c(-c6ccccc6)c45)cc3)c2)CC1` [Compound 122], the half-inhibitory concentration (IC50) is < 1 µM.

For the origin of these results see US8138194B2, “Fused bicyclic pyrimidine compounds as aurora kinase inhibitors” (National Health Research Institutes, priority 2008, dated 2012).
